Measurements as given in article PMC3227869 (Biochemistry, 2009).

Columns and labels:
Type in all cases: biochemical
E. coli GCH I (FolE) = E. coli GCH I (FolE) (Escherichia coli, UniProt P0A6T5); assay: HPLC of product; conditions: anaerobic
mouse PTPS (mPTPS) = molecular target: T1, mouse PTPS (mPTPS) (Mus musculus, UniProt Q9R1Z7); assay: HPLC of product, UV-visible spectra; conditions: anaerobic; H2NTP generated in situ from GTP by FolE; control reaction
T1 sequence (Q9R1Z7 1-144): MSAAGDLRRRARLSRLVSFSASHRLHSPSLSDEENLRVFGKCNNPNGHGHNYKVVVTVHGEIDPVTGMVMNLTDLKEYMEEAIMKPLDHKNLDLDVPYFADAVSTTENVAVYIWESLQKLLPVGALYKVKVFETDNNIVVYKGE

E. coli QueD = molecular target: T2, E. coli QueD (Escherichia coli, UniProt P65870); assay: HPLC of product, UV-visible spectra; conditions: anaerobic (95% N2:5% H2)
T2 sequence (P65870 1-121): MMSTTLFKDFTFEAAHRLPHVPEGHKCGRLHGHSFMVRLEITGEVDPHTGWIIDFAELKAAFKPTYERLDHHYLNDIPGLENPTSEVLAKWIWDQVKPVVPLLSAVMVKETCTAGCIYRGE

Sequence of E. coli GCH I (FolE) (P0A6T5 2-222): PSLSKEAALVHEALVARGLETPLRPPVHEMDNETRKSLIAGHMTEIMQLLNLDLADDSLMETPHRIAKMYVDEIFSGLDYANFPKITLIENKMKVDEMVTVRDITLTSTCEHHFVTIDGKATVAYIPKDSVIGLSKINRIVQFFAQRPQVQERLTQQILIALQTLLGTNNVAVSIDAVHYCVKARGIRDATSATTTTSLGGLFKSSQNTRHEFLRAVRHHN

Nc1nc2c(ncn2[C@@H]2O[C@H](COP(=O)(O)OP(=O)(O)OP(=O)(O)O)[C@@H](O)[C@H]2O)c(=O)[nH]1 [GTP]
HPLC of product (E. coli GCH I (FolE)): H2NTP could be produced quantitatively from GTP

Nc1nc2c(c(=O)[nH]1)N=C([C@H](O)[C@H](O)COP(=O)(O)OP(=O)(O)OP(=O)(O)O)CN2 [H2NTP]
HPLC of product, UV-visible spectra (mouse PTPS (mPTPS)): H2NTP was quantitatively converted to PPH4

C[C@H](O)C(=O)C1=Nc2c(nc(N)[nH]c2=O)NC1 [sepiapterin]
HPLC of product, UV-visible spectra (E. coli QueD): the same product forms when sepiapterin is the substrate for QueD
